How the values were obtained:
BEAS-2B cells [1] = experiment: IL-6 release from IFNγ + TNFα-stimulated BEAS-2B cells; format: cell-based, human
Experimental: (§1) In order to determine whether any of the inhibitory effects of the JAK inhibitors could be attributed to cell death, MTT assays were performed at the end of every experiment. […] In order to address this issue, the levels of IL-6 released from cells stimulated with IFNγ + TNFα were measured.

BEAS-2B cells [2] = experiment: Release of CXCL9, CXCL10 and CXCL11 from BEAS-2B cells (ELISA), inhibitors added 1h before stimulus; format: cell-based, human; conditions: BEAS-2B
Experimental: (§2) BEAS-2B cells (catalogue number CRL-9609) were purchased directly from American Type Culture Collection (Rockville, MD). Keratinocyte serum-free medium (K-SFM), bovine pituitary extract (BPE), and recombinant human epidermal growth factor (EGF) were purchased from Invitrogen (Paisley, UK). BEAS-2B cells were cultured in K-SFM containing 50 μg/ml BPE and 5 ng/ml EGF at 37°C in a humidified atmosphere comprising 5% (v/v) CO2 in air. Cells were cultured as monolayers in growth factor-free media for 24 h prior to stimulation. Human primary airway epithelial cells were cultured as monolayers from bronchial brushings from both male and female subjects (Table 1) and cultured in LHC-9 media (Invitrogen, Paisley, UK) in collagen (1% w/v) coated flasks. Samples were obtained from non-smokers, smokers and patients with COPD. […] The subjects were matched for age and smokers and COPD patients for smoking history (Table 1). All subjects gave informed written consent and the study was approved by the NRES London-Chelsea Research Ethics committee, study number 09/H0801/85.
(§3) Cell-free supernatants were removed 20h post-stimulation and assayed for CXCL9, CXCL10 and CXCL11 using Duoset ELISA kits (R & D Systems Europe, Abingdon, UK) according to the manufacturer’s instructions. The detection limits of these assays are 62pg/ml, 31pg/ml, and 7.8 pg/ml respectively.
(§4) Data are presented as mean ± SEM of ‘n’ independent determinations. Concentration-response curves were analysed by least-squares, non-linear iterative regression with the ‘Graphpad Prism’ curve fitting program (GraphPad software, San Diego, USA) and IC50 values were subsequently interpolated from curves of best-fit. Statistical differences were determined using the Kruskal–Wallis test followed by Dunn's multiple comparison test or a Wilcoxon signed rank test as appropriate. Values of P<0.05 were considered significant.
Media was harvested and the concentrations of CXCL9 (panels a and d), CXCL10 (panels b and e) and CXCL11 (panels c and f) were measured by ELISA. Data are presented as mean±SEM, n = 7–8.

[3] = system: human primary airway epithelial cells; experiment: Release of CXCL9, CXCL10 and CXCL11 from human primary airway epithelial cells (ELISA); format: cell-based; conditions: human primary airway epithelial cells, IFNγ or IFNγ+TNFα
Experimental: as §2, §3, §4
Media was harvested and the concentrations of CXCL9 (panels a and d), CXCL10 (panels b and e) and CXCL11 (panels c and f) were measured by ELISA. Data are presented as mean ± SEM, n = 10–13.

BEAS-2B cells [4] = experiment: mRNA expression of CXCL9, CXCL10 and CXCL11 in BEAS-2B cells (Taqman RT-PCR); format: cell-based, human; conditions: BEAS-2B, 10^-6M, IFNγ or IFNγ + TNFα
Experimental: Total RNA was extracted from cells and reverse transcribed, as described previously. Gene expression was determined by Taqman real-time PCR on a 7500 Real Time PCR system (Applied Biosystems, Life Technologies Ltd, Paisley, UK) using PCR Master Mix Reagent and ‘assays on demand’ (Applied Biosystems). HPRT1 gene expression was used as the housekeeping gene and data presented as δδCT relative to baseline.
Gene expression of CXCL9 (panels a and b), CXCL10 (panels c and d) and CXCL11 (panels e and f) were quantified by Taqman RT-PCR. Data are presented as fold change form stimulus ± SEM; n = 3 where 1 indicates the level of mRNA induced by IFNγ or IFNγ + TNFα in the absence of inhibitors.

[5] = system: human primary airway epithelial cells; experiment: IL-6 release from IFNγ + TNFα-stimulated human primary airway epithelial cells; format: cell-based; conditions: IFNγ + TNFα
Experimental: as §1

Structure (SMILES): C[C@@H]1C[C@H]2[C@@H]3CCC4=CC(=O)C=C[C@]4(C)[C@@]3(F)[C@@H](O)C[C@]2(C)[C@@]1(O)C(=O)CO [dexamethasone]
- suppression of IL-6 release (BEAS-2B cells [1]): 50–70%
- IC50 (BEAS-2B cells [1]; Homo sapiens): 0.016 ± 0.008 µM
- effect on CXCL9 and CXCL11 release (BEAS-2B cells [2]; IFNγ or IFNγ+TNFα): very limited effect
- maximal inhibitory effect on release of CXCL10 (BEAS-2B cells [2]; IFNγ-stimulated): ~ 50%
- inhibitory effect on release of CXCL10 (BEAS-2B cells [2]; stimulation with IFNγ and TNFα together): none
- effect on CXCR3 chemokine release [3]: did not suppress
- effect on gene transcription of CXCL9, CXCL10 and CXCL11 (BEAS-2B cells [4]): no effect on gene transcription
- IC50 ([5]; Homo sapiens, Epithelial cell): 0.011 ± 0.007 µM
- suppression of IL-6 release [5]: 50–70%

From PMC4474874, “Effect of JAK Inhibitors on Release of CXCL9, CXCL10 and CXCL11 from Human Airway Epithelial Cells” (PLoS ONE, 2015)
